Data published in ChEMBL document CHEMBL3085711, “Phosphorus-nitrogen compounds part 27. Syntheses, structural characterizations, antimicrobial and cytotoxic activities, and DNA interactions of new phosphazenes bearing secondary amino and pendant (4-fluorobenzyl)spiro groups” (2013).
Values after ≈ are worked out from the molar mass of the structure shown. Active and inactive are the calls of the source. The rule behind the calls is not given here.

Columns and labels:
[1] = system: Escherichia coli; test: Binding affinity to Escherichia coli pBR322 A/AGCTT DNA assessed as DNA strand cleavage at 625 to 2500 uM preincubated for 24 hrs prior to HindIII treatment measured after 1 hr by agarose gel electrophoresis
[2] = system: HeLa; test: Cytotoxicity against human HeLa cells assessed as decrease in cell viability at 5 to 50 ug/ml after 24 hrs by MTT assay relative to control; assay type: functional
[3] = system: Escherichia coli; test: Binding affinity to Escherichia coli pBR322 DNA assessed as DNA strand cleavage at 156 to 2500 uM after 24 hrs by agarose gel electrophoresis
[4] = system: Bacillus subtilis; test: Antibacterial activity against Bacillus subtilis; assay type: functional
[5] = system: Bacillus subtilis; test: Antibacterial activity against Bacillus subtilis at 0.25 mM after 24 hrs by disk diffusion method; assay type: functional; settings: read-out: DIZ
[6] = system: HeLa; test: Cytotoxicity against human HeLa cells assessed as decrease in cell viability after 24 hrs by MTT assay; assay type: functional, cell-based
[7] = system: Escherichia coli; test: Binding affinity to Escherichia coli pBR322 G/GATCC DNA assessed as DNA strand cleavage at 625 to 2500 uM preincubated for 24 hrs prior to BamHI treatment measured after 1 hr by agarose gel electrophoresis
[8] = system: HeLa; test: Cytotoxicity against human HeLa cells assessed as decrease in cell viability at 10 to 50 ug/ml after 24 hrs by MTT assay relative to control; assay type: functional, cell-based
[9] = system: Candida tropicalis; test: Antifungal activity against Candida tropicalis ATCC 13803 at 0.25 mM after 72 hrs by disk diffusion method; assay type: functional; settings: ATCC 13803, 72 h, read-out: DIZ
[10] = system: Candida albicans; test: Antifungal activity against Candida albicans ATCC 10231; assay type: functional
[11] = system: Candida albicans; test: Antifungal activity against Candida albicans ATCC 10231 at 0.25 mM after 72 hrs by disk diffusion method; assay type: functional; settings: ATCC 10231, 72 h, read-out: DIZ
[12] = system: Candida tropicalis; test: Antifungal activity against Candida tropicalis ATCC 13803; assay type: functional
[13] = system: HeLa; test: Induction of apoptosis in human HeLa cells assessed as change in cellular morphology at 25 uM after 24 hrs by propidium iodide staining-based fluorescence microscopic analysis; assay type: functional, cell-based
[14] = system: HeLa; test: Induction of apoptosis in human HeLa cells assessed as loss of mitochondrial membrane potential at 25 uM after 24 hrs by DiOC6 staining-based fluorescence microscopic analysis; assay type: functional, cell-based
[15] = system: HeLa; test: Induction of apoptosis in human HeLa cells at 25 uM after 48 to 72 hrs by DAPI staining-based fluorescence microscopic analysis; assay type: functional, cell-based
[16] = system: HeLa; test: Cytotoxicity against human HeLa cells assessed as decrease in cell survival at 10 ug/ml after 48 hrs by trypan blue exclusion assay; assay type: functional, cell-based
[17] = system: Bacillus cereus; test: Antibacterial activity against Bacillus cereus at 30 ug after 24 hrs by disk diffusion method; assay type: functional; settings: read-out: DIZ
[18] = system: Bacillus subtilis; test: Antibacterial activity against Bacillus subtilis at 30 ug after 24 hrs by disk diffusion method; assay type: functional; settings: read-out: DIZ
[19] = system: Bacillus cereus; test: Antibacterial activity against Bacillus cereus at 0.25 mM after 24 hrs by disk diffusion method; assay type: functional; settings: read-out: DIZ
[20] = system: Bacillus cereus; test: Antibacterial activity against Bacillus cereus; assay type: functional
[21] = system: Candida tropicalis; test: Antifungal activity against Candida tropicalis ATCC 13803 at 50 ug after 72 hrs by disk diffusion method; assay type: functional; settings: ATCC 13803, 72 h, read-out: DIZ
[22] = system: Candida albicans; test: Antifungal activity against Candida albicans ATCC 10231 at 50 ug after 72 hrs by disk diffusion method; assay type: functional; settings: ATCC 10231, 72 h, read-out: DIZ
[23] = system: Bacillus subtilis; test: Antibacterial activity against Bacillus subtilis at 10 ug after 24 hrs by disk diffusion method; assay type: functional; settings: read-out: DIZ
[24] = system: Bacillus cereus; test: Antibacterial activity against Bacillus cereus at 10 ug after 24 hrs by disk diffusion method; assay type: functional; settings: read-out: DIZ
[25] = system: HeLa; test: Cytotoxicity against human HeLa cells assessed as decrease in cell viability at 5 ug/ml after 24 hrs by MTT assay relative to control; assay type: functional, cell-based

Q: How did the Activity [1] turn out when `CN1CCN(Cc2ccc(F)cc2)P12=NP(N1CCOCC1)(N1CCOCC1)=NP(N1CCOCC1)(N1CCOCC1)=N2` (centres undefined) was run?
A: Active

Q: What about the Activity [2] of the same compound?
A: inactive

Q: And the Activity [3]?
A: Active

Q: How did the Activity [1] turn out when `CCN1CCN(Cc2ccc(F)cc2)P12=NP(N1CCOCC1)(N1CCOCC1)=NP(N1CCOCC1)(N1CCOCC1)=N2` (centres undefined) was run?
A: Active

Q: What about the Activity [2] of the same compound?
A: inactive

Q: And the Activity [3]?
A: Active

Q: `CN1CCN(Cc2ccc(F)cc2)P12=NP(N1CCCC1)(N1CCCC1)=NP(N1CCCC1)(N1CCCC1)=N2` (centres undefined) was tested. Which MIC [4] did it give?
A: 9.8 µM (≈ 5.84 µg/mL)

Q: And the zone of inhibition at 250 µM [5]?
A: 12.3 mm

Q: What about the Activity [6] of the same compound?
A: Dose-dependent effect

Q: And the Activity [3]?
A: Active

Q: And the Activity [7]?
A: Active

Q: For `CN1CCCN(Cc2ccc(F)cc2)P12=NP(N1CCCCC1)(N1CCCCC1)=NP(N1CCCCC1)(N1CCCCC1)=N2` (centres undefined), which Activity [8] is on record?
A: Active

Q: And the zone of inhibition at 250 µM [9]?
A: 20 mm

Q: What about the Activity [6] of the same compound?
A: Dose-dependent effect

Q: And the MIC [10]?
A: 9.8 µM (≈ 6.52 µg/mL)

Q: And the zone of inhibition at 250 µM [11]?
A: 18.3 mm

Q: What about the MIC [12] of the same compound?
A: 19.5 µM (≈ 13 µg/mL)

Q: What about the Activity [3] of the same compound?
A: Active

Q: What about the Activity [7] of the same compound?
A: Active

Q: Which Activity [13] does the source give for `CN1CCCN(Cc2ccc(F)cc2)P12=NP(N1CCOCC1)(N1CCOCC1)=NP(N1CCOCC1)(N1CCOCC1)=N2` (centres undefined) here?
A: inactive

Q: What about the Activity [1] of the same compound?
A: Active

Q: What about the Activity [14] of the same compound?
A: Active

Q: What about the Activity [2] of the same compound?
A: 58%

Q: And the Activity [3]?
A: Active

Q: How did the Activity [6] turn out when `CC(=O)O[C@H]1C(=O)[C@@]2(C)[C@H]([C@H](OC(=O)c3ccccc3)[C@]3(O)C[C@H](OC(=O)[C@H](O)[C@@H](NC(=O)c4ccccc4)c4ccccc4)C(C)=C1C3(C)C)[C@]1(OC(C)=O)CO[C@@H]1C[C@@H]2O` was run?
A: Dose-dependent effect

Q: What about the Activity [2] of the same compound?
A: Active

Q: Which results are given for `CN1CCCN(Cc2ccc(F)cc2)P12=NP(N1CCC3(CC1)OCCO3)(N1CCC3(CC1)OCCO3)=NP(N1CCC3(CC1)OCCO3)(N1CCC3(CC1)OCCO3)=N2` (centres undefined)?
A: Activity [13]: inactive; Activity [14]: Active; Activity [2]: 49%; Activity [15]: Active; Activity [16]: Active; Activity [3]: Active; Activity [7]: Active

Q: What does the source list for `CN1CCN(Cc2ccc(F)cc2)P12=NP(N1CCCCC1)(N1CCCCC1)=NP(N1CCCCC1)(N1CCCCC1)=N2` (centres undefined)?
A: zone of inhibition at 250 µM [9]: 17.3 mm; Activity [6]: Dose-dependent effect; MIC [10]: 156 µM (≈ 102 µg/mL); zone of inhibition at 250 µM [11]: 13.6 mm; MIC [12]: 156 µM (≈ 102 µg/mL); Activity [3]: Active; Activity [7]: Active

Q: `CN1CCN(Cc2ccc(F)cc2)P12=NP(N1CCC3(CC1)OCCO3)(N1CCC3(CC1)OCCO3)=NP(N1CCC3(CC1)OCCO3)(N1CCC3(CC1)OCCO3)=N2` (centres undefined) was tested. Which Activity [13] did it give?
A: inactive

Q: What about the Activity [14] of the same compound?
A: Active

Q: And the Activity [2]?
A: inactive

Q: What about the Activity [15] of the same compound?
A: Active

Q: And the Activity [16]?
A: Active

Q: And the Activity [3]?
A: Active

Q: What about the Activity [7] of the same compound?
A: Active

Q: For `O=C(N[C@H](CO)[C@H](O)c1ccc([N+](=O)[O-])cc1)C(Cl)Cl` [CHLORAMPHENICOL], which zone of inhibition at 30 µg/disc [17] is on record?
A: 26 mm

Q: And the zone of inhibition at 30 µg/disc [18]?
A: 31 mm

Q: With `CN1CCCN(Cc2ccc(F)cc2)P12=NP(N1CCCC1)(N1CCCC1)=NP(N1CCCC1)(N1CCCC1)=N2` (centres undefined) as the compound, how does the MIC [4] read?
A: 9.8 µM (≈ 5.97 µg/mL)

Q: What about the zone of inhibition at 250 µM [19] of the same compound?
A: 12.6 mm

Q: What about the zone of inhibition at 250 µM [5] of the same compound?
A: 16.5 mm

Q: What about the Activity [6] of the same compound?
A: Dose-dependent effect

Q: And the MIC [20]?
A: 156 µM (≈ 95.3 µg/mL)

Q: And the Activity [2]?
A: 50%

Q: And the Activity [3]?
A: Active

Q: What about the Activity [7] of the same compound?
A: Active

Q: Which results are given for `CC(=O)N1CCN(c2ccc(OCC3COC(Cn4ccnc4)(c4ccc(Cl)cc4Cl)O3)cc2)CC1` (centres undefined) [KETOCONAZOLE]?
A: zone of inhibition at 50 µg/disc [21]: 29 mm; zone of inhibition at 50 µg/disc [22]: 29 mm

Q: Which MIC [4] does the source give for `CCN1CCN(Cc2ccc(F)cc2)P12=NP(N1CCCCC1)(N1CCCCC1)=NP(N1CCCCC1)(N1CCCCC1)=N2` (centres undefined) here?
A: 156 µM (≈ 104 µg/mL)

Q: What about the zone of inhibition at 250 µM [9] of the same compound?
A: 17.3 mm

Q: What about the zone of inhibition at 250 µM [5] of the same compound?
A: 10.7 mm

Q: What about the Activity [6] of the same compound?
A: Dose-dependent effect

Q: What about the MIC [10] of the same compound?
A: 625 µM (≈ 416 µg/mL)

Q: And the zone of inhibition at 250 µM [11]?
A: 12.3 mm

Q: What about the MIC [12] of the same compound?
A: 19.5 µM (≈ 13 µg/mL)

Q: What about the Activity [3] of the same compound?
A: Active

Q: What about the Activity [7] of the same compound?
A: Active

Q: Which zone of inhibition at 10 µg/disc [23] does the source give for `CC1(C)S[C@@H]2[C@H](NC(=O)[C@H](N)c3ccccc3)C(=O)N2[C@H]1C(=O)O` [AMPICILLIN] here?
A: 30.3 mm

Q: What about the zone of inhibition at 10 µg/disc [24] of the same compound?
A: 26.3 mm

Q: How did the MIC [4] turn out when `CCN1CCN(Cc2ccc(F)cc2)P12=NP(N1CCCC1)(N1CCCC1)=NP(N1CCCC1)(N1CCCC1)=N2` (centres undefined) was run?
A: 9.8 µM (≈ 5.97 µg/mL)

Q: And the zone of inhibition at 250 µM [5]?
A: 11.5 mm

Q: And the Activity [6]?
A: Dose-dependent effect

Q: And the Activity [25]?
A: Active

Q: And the Activity [3]?
A: Active

Q: And the Activity [7]?
A: Active

Q: How did the Activity [2] turn out when `CCN1CCN(Cc2ccc(F)cc2)P12=NP(N1CCC3(CC1)OCCO3)(N1CCC3(CC1)OCCO3)=NP(N1CCC3(CC1)OCCO3)(N1CCC3(CC1)OCCO3)=N2` (centres undefined) was run?
A: inactive

Q: And the Activity [3]?
A: Active

Q: What about the Activity [7] of the same compound?
A: Active
